Measurements from ChEMBL document CHEMBL1201862, “PubChem BioAssay data set” (2004).
Activity calls are given as the source filed them.

Assays:
[1] = cells; assay type: functional, cell-based
[2] = cells; assay type: functional, cell-based; remark: listed apart in the source
[3] = molecular target: T1, Calpain-2 catalytic subunit (Sus scrofa, UniProt P43367); test: pig calpain II inhibitor potency, dose response, biochemical, fluorogenic peptide substrate (AID 1420); assay type: functional
T1 sequence (P43367 whole entry): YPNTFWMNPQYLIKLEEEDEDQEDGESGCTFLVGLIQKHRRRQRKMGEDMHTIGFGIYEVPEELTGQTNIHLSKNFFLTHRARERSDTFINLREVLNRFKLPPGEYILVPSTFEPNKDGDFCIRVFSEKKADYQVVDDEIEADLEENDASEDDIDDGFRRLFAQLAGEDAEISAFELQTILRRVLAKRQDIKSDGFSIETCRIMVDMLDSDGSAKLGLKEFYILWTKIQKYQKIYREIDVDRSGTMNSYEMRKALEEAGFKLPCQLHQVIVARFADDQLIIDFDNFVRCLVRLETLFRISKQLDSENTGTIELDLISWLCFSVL

[4] = tested on: BJ; test: cytotoxicity toward BJ-TERT fibroblasts, dose response, cell-based, RAS-independent, luminescence (AID 1933); assay type: functional; conditions: Homo sapiens
[5] = tested on: BJ; test: cells; assay type: functional, cell-based; conditions: Homo sapiens
[6] = tested on: BJ; test: cytotoxicity toward BJ-TERT-LT-ST fibroblasts, dose response, cell-based, RAS-independent, luminescence (AID 1935); assay type: functional; conditions: Homo sapiens;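 also: BJ fibroblasts immortalized with TERT plus LT and ST oncogenes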
[7] = cytotoxicity toward DRD oncogenic fibroblasts, dose response, cell-based, non-viral oncogenic, luminescence (AID 1934); assay type: functional; conditions: Homo sapiens
[8] = molecular target: T2, Leucine aminopeptidase (Plasmodium falciparum 3D7, UniProt Q8IL11); test: P. falciparum M17LAP inhibitors, primary screen, biochemical, fluorogenic H-Leu-NHMec substrate, 1536-well (AID 1619); assay type: functional
T2 sequence (Q8IL11 whole entry): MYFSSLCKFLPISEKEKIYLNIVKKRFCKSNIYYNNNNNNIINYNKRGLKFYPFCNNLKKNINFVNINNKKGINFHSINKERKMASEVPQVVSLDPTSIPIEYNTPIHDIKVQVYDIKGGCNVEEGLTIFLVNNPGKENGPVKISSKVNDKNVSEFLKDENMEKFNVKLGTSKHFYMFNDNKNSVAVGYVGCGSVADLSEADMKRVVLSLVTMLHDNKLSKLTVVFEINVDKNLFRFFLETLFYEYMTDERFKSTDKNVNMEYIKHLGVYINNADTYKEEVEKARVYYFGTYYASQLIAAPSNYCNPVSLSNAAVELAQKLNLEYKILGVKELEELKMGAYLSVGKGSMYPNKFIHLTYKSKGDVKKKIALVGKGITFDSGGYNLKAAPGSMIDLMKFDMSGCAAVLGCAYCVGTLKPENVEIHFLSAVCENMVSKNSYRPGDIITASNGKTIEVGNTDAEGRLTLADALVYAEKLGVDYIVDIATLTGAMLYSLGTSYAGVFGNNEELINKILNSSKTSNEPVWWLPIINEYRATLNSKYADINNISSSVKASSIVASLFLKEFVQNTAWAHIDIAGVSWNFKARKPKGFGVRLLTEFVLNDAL

[9] = NIH-3T3 fibroblast cytotoxicity, dose response, cytotoxicity control, cell-based, fluorescence, Alamar Blue, secondary assay (AID 2327); assay type: functional;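 also: NIH-3T3 mouse fibroblasts cultured with fluconazole at 8 µg/mL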
[10] = C. albicans growth with fluconazole, confirmation, fluorescence, retest (AID 2467); assay type: functional, cell-based
[11] = molecular target: T3, Rac GTPase-activating protein 1 (Homo sapiens, UniProt Q9H0H5); test: MgcRacGAP GTPase-activating activity inhibitors, confirmation, biochemical, ADP Hunter fluorescence, primary and confirmatory (AID 624330); assay type: functional
T3 sequence (Q9H0H5 whole entry): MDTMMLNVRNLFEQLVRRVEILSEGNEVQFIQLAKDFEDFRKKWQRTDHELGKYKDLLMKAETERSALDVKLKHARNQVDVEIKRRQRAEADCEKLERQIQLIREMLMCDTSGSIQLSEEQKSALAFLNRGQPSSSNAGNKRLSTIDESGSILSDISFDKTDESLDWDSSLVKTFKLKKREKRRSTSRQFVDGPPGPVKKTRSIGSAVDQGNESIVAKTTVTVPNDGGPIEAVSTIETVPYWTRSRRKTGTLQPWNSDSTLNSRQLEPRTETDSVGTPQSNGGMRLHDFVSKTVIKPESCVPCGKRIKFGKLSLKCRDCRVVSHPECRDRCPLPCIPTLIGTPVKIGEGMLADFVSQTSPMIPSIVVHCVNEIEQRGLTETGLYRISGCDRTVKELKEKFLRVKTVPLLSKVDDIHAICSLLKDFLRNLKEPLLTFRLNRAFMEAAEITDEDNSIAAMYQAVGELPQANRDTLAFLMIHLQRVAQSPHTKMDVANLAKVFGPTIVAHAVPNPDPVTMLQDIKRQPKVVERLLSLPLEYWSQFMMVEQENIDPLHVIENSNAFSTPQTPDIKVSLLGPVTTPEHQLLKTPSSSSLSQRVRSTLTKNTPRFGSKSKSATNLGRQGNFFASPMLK

[12] = Luminescence Cell-Based Dose Retest to Confirm Inhibitors of Cancer Stem Cells. [Related pubchem assays (depositor defined):AID2717, AID2721]; assay type: functional; conditions: Homo sapiens
[13] = molecular target: T4, Heat shock factor protein 1 (Mus musculus, UniProt P38532); test: HSF1 potentiators in luciferase reporter cells, confirmation, cell-based, NIH3T3, luminescence, dose retest (AID 435004); assay type: functional;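 also: stress induced by proteasome inhibitor MG132 added 30 min after compound; luciferase reporter driven by HSF1 response element in NIH3T3 cells; actives raise luminescence as potentiators of the MG132 stress response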
T4 sequence (P38532 whole entry): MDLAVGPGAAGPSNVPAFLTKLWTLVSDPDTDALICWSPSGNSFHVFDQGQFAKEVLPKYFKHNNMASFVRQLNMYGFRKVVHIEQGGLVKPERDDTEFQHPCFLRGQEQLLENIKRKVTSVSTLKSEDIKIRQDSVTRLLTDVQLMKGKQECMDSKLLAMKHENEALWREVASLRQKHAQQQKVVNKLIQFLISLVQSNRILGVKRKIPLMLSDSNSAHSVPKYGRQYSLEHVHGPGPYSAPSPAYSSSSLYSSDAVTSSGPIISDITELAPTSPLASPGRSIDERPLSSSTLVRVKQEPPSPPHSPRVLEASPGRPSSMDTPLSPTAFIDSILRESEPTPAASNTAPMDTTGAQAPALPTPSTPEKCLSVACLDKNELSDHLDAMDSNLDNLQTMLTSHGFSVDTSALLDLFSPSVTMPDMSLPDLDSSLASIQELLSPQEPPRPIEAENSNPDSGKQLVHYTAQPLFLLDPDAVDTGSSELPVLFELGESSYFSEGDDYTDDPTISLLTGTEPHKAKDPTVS

[14] = molecular target: Fatty acid synthase (Homo sapiens, UniProt P49327); test: FAS thioesterase domain inhibitors, dose response, biochemical, kinetic fluorescence intensity (AID 624326); assay type: functional;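 also: rate of fluorescence rise from hydrolysis of a fluorogenic O-methyl fluorescein ester substrate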
[15] = inhibitors of HIV Env-driven cell fusion, dose response, cherry-pick (AID 652057); assay type: functional, cell-based
[16] = ZM109 Env clade C HIV-1 fusion inhibitors, dose response, HeLa effector, CEM target cells, luciferase, cherry-pick (AID 652058); assay type: functional, cell-based
[17] = inhibitors of clade B AD8 Env fusion, dose response, cell-based, cherry-pick (AID 652062); assay type: functional;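 also: luciferase signal from cell-cell fusion driven by HIV-1 clade B AD8 Env; potency is for inhibitors of fusion seen as a drop in luminescence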

Fatty acid synthase, sequence (P49327 whole entry, the tested form may be a part): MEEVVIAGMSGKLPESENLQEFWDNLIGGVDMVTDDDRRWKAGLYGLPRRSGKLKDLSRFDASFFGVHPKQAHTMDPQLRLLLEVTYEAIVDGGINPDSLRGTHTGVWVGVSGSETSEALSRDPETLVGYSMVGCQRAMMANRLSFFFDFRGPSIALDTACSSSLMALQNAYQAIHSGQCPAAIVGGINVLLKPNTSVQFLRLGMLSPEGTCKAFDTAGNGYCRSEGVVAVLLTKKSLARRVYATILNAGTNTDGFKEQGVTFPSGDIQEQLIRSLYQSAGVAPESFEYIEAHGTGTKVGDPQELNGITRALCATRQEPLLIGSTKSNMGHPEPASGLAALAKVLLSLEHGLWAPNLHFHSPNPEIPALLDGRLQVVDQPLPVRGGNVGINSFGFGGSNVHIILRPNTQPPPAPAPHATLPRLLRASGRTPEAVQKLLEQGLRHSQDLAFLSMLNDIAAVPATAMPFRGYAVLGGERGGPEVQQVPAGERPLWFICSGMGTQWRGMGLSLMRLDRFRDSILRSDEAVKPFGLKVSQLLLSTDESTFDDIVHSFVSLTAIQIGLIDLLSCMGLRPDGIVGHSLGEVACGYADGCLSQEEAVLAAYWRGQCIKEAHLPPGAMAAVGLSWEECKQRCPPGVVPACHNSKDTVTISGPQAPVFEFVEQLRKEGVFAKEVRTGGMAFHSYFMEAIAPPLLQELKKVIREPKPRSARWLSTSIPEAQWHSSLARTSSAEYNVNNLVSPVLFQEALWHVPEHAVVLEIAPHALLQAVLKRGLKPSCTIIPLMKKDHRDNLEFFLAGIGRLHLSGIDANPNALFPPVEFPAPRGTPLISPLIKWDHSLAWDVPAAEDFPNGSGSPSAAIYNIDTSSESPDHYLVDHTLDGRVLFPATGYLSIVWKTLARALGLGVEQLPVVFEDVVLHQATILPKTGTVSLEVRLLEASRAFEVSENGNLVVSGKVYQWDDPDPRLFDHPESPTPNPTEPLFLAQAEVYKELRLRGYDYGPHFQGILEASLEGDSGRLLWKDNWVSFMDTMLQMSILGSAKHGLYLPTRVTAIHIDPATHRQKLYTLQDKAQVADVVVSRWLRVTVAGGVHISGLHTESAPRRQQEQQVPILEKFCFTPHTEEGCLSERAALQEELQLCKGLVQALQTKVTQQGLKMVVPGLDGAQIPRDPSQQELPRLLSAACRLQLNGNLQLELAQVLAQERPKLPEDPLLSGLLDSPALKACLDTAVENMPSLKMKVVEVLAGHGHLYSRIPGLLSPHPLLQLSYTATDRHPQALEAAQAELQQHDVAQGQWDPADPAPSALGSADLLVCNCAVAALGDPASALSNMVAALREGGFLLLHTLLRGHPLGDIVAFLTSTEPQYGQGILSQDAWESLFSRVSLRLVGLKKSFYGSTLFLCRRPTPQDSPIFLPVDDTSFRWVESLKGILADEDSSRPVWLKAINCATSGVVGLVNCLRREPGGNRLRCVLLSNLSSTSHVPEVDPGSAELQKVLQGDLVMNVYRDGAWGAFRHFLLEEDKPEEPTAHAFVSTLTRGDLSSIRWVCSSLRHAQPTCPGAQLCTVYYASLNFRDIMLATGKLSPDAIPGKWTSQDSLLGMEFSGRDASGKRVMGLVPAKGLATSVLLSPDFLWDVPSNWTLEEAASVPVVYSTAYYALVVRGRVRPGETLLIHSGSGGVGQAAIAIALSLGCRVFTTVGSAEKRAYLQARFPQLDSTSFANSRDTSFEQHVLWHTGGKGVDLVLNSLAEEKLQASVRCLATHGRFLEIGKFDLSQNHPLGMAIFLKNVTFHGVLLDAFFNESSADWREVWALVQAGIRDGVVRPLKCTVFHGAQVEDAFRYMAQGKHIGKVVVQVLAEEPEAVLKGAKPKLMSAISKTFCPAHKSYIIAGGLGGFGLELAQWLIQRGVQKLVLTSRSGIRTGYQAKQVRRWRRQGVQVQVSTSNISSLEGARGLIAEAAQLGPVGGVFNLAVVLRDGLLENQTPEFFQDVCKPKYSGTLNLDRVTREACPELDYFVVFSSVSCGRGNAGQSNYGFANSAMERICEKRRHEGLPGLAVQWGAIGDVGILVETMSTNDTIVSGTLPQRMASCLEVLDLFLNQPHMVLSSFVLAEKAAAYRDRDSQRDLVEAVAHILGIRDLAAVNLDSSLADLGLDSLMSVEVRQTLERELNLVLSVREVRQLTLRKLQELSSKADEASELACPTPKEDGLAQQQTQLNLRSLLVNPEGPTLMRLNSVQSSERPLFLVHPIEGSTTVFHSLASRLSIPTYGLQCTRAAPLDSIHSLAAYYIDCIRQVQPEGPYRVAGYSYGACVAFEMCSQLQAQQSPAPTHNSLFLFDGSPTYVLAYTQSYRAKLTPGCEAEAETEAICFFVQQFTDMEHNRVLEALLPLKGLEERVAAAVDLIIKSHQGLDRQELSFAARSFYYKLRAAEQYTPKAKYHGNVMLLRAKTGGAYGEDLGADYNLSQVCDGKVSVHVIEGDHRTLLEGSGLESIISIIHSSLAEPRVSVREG

Cc1cccc(N=C(S)N2CCC(N(C)CC3CCCO3)CC2)c1 (centres undefined)
EC50 [1]: > 350 µM (not active)
EC50 [2]: > 350 µM (not active)

Nn1c(Cc2cccc3ccccc23)nnc1SCc1ccc(Cl)c(Cl)c1
IC50 [3]: < 0.4 µM (not active)

Cc1cc2cc(CN=C(S)NC3CCCCC3)ccc2[nH]1
IC50 [3]: 34.6 µM (not active)

COc1ccc(-n2c(SCC(=O)Nc3ncc(Cl)cc3Cl)nc3ccccc32)cc1
EC50 [4]: 27.8 µM (active)
EC50 [5]: 139 µM (active)
EC50 [6]: > 150 µM (inconclusive)
EC50 [7]: 137 µM (active)

CCC1(C)Cc2sc3c(=O)[nH]c(=S)[nH]c3c2CO1 (centres undefined)
IC50 [8]: 29.3 µM (active)

Cc1ccc2cc(CCNC(=O)c3cc4ccccc4o3)c(O)nc2c1C
IC50 [3]: > 50 µM (not active)

CCN1/C(=C\C=C2\C(=O)N(c3ccccc3)C(=S)N2C)Sc2ccccc21
IC50 [3]: > 50 µM (not active)

Brc1ccc(-c2nnc3sc(CN4CCN(c5ccccc5)CC4)cn23)cc1
EC50 [9]: > 150 µM (inactive)
EC50 [4]: > 150 µM (not active)
EC50 [5]: > 150 µM (not active)
EC50 [10]: 2.14 µM (active)
EC50 [6]: > 150 µM (not active)
EC50 [7]: > 150 µM (not active)

CCOc1ccc(Nc2nnc(S)s2)cc1
IC50 [8]: < 1 µM (active)
IC50 [11]: 54.8 µM (active)

CC(C)Cn1c(S)nnc1-c1csc(C(C)C)c1
IC50 [3]: 10.8 µM (active)

CSc1nc(Oc2ccccc2)c2sccc2n1
IC50 [3]: < 0.4 µM (not active)

CN1CCN(Cc2nc3ccccc3c(=O)n2Cc2nc(-c3ccccc3F)cs2)CC1
EC50 [1]: > 350 µM (not active)
EC50 [2]: 45.4 µM (active)

Nc1[nH]nc2nc(N3CCCC3)nc(-c3ccccc3)c12
IC50 [8]: 33.7 µM (active)

O=C(O)c1cnn2cc(-c3n[nH]cc3[N+](=O)[O-])cnc12
IC50 [8]: 13.3 µM (active)

COc1ccc(/C=C(\C#N)c2c[nH]c3ccccc23)cc1
EC50 [4]: 0.706 µM (inconclusive)
EC50 [5]: 20 µM (inconclusive)
EC50 [6]: 1.76 µM (inconclusive)
EC50 [7]: 0.441 µM (active)
AC50 [12]: 0.203 µM (active)
EC50 [13]: 39.2 µM (active)

COc1ccc(-c2cc(C(=O)N3CCCc4ccccc43)no2)cc1
IC50 [3]: 13.4 µM (not active)

CCOc1ccc(CC(=O)OCn2nnc3ccccc3c2=O)cc1
IC50 [3]: 24.4 µM (not active)

CCCOc1ccc(N2C(=O)CC(SCCN)C2=O)cc1 (centres undefined)
IC50 [8]: 12 µM (active)

O=C(c1cc2ccccc2o1)N1CCN(Cc2ccc3c(c2)OCO3)CC1
EC50 [1]: > 350 µM (not active)
EC50 [2]: > 350 µM (not active)

CCc1ccc(NC(=O)c2noc(C(C)C)c2[N+](=O)[O-])cc1
IC50 [3]: 6.83 µM (not active)

Cc1noc(NS(=O)(=O)c2ccc(NC(=O)Nc3ccc(Cl)c(Cl)c3)cc2)c1C
IC50 [8]: 9.03 µM (active)

CCC(C)C(NC(=O)c1ccc(Cl)cc1)C(=O)Nc1cccnc1 (centres undefined)
IC50 [3]: 7.69 µM (not active)

O=C(Nc1cccc2ccccc12)/C(Cl)=C/c1ccccc1
IC50 [3]: 8.93 µM (not active)

O=C(CCCCCN1C(=O)c2ccccc2C1=O)Nc1ccc(F)cc1
IC50 [3]: 11.1 µM (not active)

O=C(CN1C(=O)C2C3C=CC(C3)C2C1=O)NCC1COc2ccccc2O1 (centres undefined)
IC50 [8]: 2.19 µM (active)

C=CCNC(=O)/C(=C/c1cn(-c2ccccc2)nc1-c1cccc([N+](=O)[O-])c1)NC(=O)c1ccccc1
EC50 [1]: > 350 µM (not active)
EC50 [2]: > 350 µM (not active)

O=C(Cc1ccc(N2CCNC2=O)cc1)N1CCCC(Nc2ccc(F)c(F)c2)C1 (centres undefined)
EC50 [4]: 9.17 µM (inconclusive)
EC50 [5]: 3.98 µM (active)
EC50 [6]: 4.14 µM (active)
EC50 [7]: 14.9 µM (inconclusive)

O=C1OC(c2cccc([N+](=O)[O-])c2)C2(CCCC2)C(=O)C12CCCCC2 (centres undefined)
IC50 [3]: > 50 µM (not active)

CN1C2CCC1/C(=C/c1cccn1C)C(=O)/C2=C\c1cccn1C
IC50 [8]: 51.9 µM (active)

CNS(=O)(=O)c1ccc2c(c1)C(=O)c1cc(S(=O)(=O)NC)ccc1CC2
IC50 [14]: 0.865 µM (active)

C[C@@H]1CN([C@H](C)CO)S(=O)(=O)c2ccc(-c3cccc(F)c3)cc2O[C@@H]1CN(C)S(=O)(=O)c1ccccc1
AC50 [15]: 3.28 µM (active)
AC50 [16]: 2.78 µM (active)
AC50 [17]: 31.6 µM (active)

C[C@H]1CN([C@@H](C)CO)S(=O)(=O)c2ccc(Br)cc2O[C@H]1CN(C)S(=O)(=O)c1ccc(F)cc1
AC50 [15]: 2.84 µM (active)
AC50 [16]: 3.04 µM (active)
AC50 [17]: 29.7 µM (active)

CO[C@H]1CN(C)C(=O)c2ccc(NC(=O)C3CCC3)cc2OC[C@@H](C)N(CC2CCCCC2)C[C@@H]1C
AC50 [15]: 10.1 µM (active)
AC50 [16]: 3.18 µM (active)
AC50 [17]: 19.9 µM (active)

COc1ccc(C/C(C)=N/NS(=O)(=O)c2ccc(Br)cc2)cc1
EC50 [1]: > 350 µM (not active)
EC50 [2]: > 350 µM (not active)

COc1cccc(N/N=C(\C#N)S(=O)(=O)C(C)(C)C)c1
IC50 [8]: 26.7 µM (active)

CC1=NNC(=O)C1CCC(=O)N/N=C\c1cccc(Cl)c1 (centres undefined)
IC50 [8]: 20.9 µM (active)
